One assay has as its target T1, TNKS-1 (Homo sapiens, UniProt O95271).
T1 sequence (O95271 1-1327): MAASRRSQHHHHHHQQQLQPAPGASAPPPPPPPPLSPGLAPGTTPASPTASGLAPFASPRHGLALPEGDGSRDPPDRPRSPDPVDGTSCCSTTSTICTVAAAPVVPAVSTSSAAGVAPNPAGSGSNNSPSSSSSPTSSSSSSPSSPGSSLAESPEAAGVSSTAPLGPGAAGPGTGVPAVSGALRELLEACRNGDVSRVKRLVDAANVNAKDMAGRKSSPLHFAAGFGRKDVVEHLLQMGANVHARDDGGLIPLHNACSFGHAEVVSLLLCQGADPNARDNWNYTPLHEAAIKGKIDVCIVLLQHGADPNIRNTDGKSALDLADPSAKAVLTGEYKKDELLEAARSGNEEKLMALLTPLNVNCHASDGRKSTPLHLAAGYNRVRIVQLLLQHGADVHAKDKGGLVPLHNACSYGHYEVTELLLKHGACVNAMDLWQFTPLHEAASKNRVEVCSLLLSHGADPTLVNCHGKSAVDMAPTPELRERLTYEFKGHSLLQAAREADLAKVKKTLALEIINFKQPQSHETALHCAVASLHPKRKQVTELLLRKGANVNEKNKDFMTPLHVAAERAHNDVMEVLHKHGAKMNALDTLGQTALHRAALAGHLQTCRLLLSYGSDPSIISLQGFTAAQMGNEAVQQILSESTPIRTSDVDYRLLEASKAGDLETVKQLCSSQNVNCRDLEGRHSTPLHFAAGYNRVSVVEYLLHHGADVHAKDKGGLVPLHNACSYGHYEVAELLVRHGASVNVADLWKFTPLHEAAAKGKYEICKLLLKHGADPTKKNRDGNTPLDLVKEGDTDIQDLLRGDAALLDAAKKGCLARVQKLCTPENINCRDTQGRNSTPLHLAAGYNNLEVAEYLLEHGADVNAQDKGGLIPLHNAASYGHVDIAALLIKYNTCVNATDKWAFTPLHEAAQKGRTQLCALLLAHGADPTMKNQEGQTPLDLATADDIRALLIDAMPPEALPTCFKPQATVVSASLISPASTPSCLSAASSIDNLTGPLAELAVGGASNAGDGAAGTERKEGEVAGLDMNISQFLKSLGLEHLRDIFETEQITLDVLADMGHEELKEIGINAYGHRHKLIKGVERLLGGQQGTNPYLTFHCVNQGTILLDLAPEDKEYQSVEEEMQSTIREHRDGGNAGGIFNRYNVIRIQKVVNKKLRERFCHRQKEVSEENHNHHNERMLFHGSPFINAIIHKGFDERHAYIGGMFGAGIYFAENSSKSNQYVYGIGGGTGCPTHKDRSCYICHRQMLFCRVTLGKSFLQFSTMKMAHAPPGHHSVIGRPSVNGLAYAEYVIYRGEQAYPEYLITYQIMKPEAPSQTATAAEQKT
Nature of the assay: TNKS-1 autoribosylation assay. The settings on record: for inhibition at 1 µM: read-out: % of inhibition TNKS-1, 1 μM, duplicate; for % of inhibition TNKS-1: 1 μM, duplicate.

The test system of assay [1] is TCF transcriptional activity (Wnt) in DLD-1 colorectal cancer cells. In words: TCF-luciferase reporter. The assay is classed as cell-based. The settings on record: DLD-1 cells, 1 μM, 24 h. A general note: Reporter assays use an easily measured gene product as a stand-in for the process of interest.
The subject of another assay is DLD-1 cancer cells. In words: Colony growth assay, DLD-1. The assay is classed as cell-based. Conditions: 1, 5 and 10 μM, treated daily, 10 days.
The subject of assay [2] is RKO colorectal cancer cell line. In words: Cell growth inhibition, Wnt-negative RKO. Type of assay: cell-based. The settings on record: negative control cell line.
For assay [3], the system named is PARP enzymes (1–3, 6–8, 10–12, 14). In words: PARP selectivity panel. Conditions: 10 μM, duplicate.
The target in another assay is T2, TNKS-2 (Homo sapiens, UniProt Q9H2K2).
T2 sequence (Q9H2K2 1-1166): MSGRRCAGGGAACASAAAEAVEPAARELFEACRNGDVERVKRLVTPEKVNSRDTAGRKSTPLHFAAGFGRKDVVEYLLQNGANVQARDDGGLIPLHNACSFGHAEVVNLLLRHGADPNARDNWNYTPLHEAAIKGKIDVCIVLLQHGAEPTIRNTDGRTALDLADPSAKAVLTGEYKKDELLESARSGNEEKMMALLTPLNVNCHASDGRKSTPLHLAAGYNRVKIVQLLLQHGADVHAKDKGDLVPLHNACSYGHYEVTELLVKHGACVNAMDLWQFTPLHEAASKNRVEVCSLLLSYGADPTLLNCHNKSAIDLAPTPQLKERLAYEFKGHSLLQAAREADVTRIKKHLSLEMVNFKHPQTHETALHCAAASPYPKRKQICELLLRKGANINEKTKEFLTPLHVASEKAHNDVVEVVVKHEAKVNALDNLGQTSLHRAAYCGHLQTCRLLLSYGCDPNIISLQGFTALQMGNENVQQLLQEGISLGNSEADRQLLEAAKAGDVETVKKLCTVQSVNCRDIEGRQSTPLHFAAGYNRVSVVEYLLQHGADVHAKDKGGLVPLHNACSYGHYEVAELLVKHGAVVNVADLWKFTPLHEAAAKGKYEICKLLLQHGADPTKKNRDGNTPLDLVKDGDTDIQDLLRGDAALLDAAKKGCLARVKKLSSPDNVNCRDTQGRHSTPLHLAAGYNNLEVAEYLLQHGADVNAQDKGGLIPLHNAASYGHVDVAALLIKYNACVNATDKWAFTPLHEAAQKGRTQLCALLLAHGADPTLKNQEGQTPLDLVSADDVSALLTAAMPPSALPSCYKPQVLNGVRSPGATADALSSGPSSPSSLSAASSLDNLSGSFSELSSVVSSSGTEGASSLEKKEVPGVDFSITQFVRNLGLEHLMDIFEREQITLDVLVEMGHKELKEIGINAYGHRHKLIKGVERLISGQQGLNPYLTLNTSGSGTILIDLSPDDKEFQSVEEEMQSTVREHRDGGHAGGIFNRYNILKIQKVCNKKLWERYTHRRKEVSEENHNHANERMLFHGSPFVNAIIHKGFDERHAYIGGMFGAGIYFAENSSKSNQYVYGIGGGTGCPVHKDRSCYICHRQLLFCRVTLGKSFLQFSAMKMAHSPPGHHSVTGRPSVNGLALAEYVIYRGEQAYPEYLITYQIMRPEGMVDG
Nature of the assay: TNKS-2 autoribosylation assay. Conditions: for inhibition at 1 µM: read-out: % of inhibition TNKS-2, 1 μM, duplicate.

In another assay the target is PARP-2 (Homo sapiens, UniProt Q9UGN5). Conditions: 20 nM, reference compound.
Sequence of PARP-2 (Q9UGN5 whole entry): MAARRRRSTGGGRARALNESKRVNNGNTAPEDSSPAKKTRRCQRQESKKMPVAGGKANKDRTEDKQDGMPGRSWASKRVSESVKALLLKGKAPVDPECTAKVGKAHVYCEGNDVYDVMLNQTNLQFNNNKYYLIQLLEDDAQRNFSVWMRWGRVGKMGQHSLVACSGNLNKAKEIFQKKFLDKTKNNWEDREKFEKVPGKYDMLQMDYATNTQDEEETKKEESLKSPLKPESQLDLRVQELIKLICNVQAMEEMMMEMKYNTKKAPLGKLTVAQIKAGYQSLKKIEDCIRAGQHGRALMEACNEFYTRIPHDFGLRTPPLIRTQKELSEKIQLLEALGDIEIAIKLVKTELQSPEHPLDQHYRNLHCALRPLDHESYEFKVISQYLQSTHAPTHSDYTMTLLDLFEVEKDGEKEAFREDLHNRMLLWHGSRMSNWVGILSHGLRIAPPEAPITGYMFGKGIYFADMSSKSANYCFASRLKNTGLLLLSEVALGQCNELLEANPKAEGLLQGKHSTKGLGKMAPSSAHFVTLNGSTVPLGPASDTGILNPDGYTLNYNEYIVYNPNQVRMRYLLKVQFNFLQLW
The target in a further assay is PARP-14 (Homo sapiens, UniProt Q460N5). In words: PARP-14 enzymatic assay. The settings on record: 100 μM.
Sequence of PARP-14 (Q460N5 whole entry): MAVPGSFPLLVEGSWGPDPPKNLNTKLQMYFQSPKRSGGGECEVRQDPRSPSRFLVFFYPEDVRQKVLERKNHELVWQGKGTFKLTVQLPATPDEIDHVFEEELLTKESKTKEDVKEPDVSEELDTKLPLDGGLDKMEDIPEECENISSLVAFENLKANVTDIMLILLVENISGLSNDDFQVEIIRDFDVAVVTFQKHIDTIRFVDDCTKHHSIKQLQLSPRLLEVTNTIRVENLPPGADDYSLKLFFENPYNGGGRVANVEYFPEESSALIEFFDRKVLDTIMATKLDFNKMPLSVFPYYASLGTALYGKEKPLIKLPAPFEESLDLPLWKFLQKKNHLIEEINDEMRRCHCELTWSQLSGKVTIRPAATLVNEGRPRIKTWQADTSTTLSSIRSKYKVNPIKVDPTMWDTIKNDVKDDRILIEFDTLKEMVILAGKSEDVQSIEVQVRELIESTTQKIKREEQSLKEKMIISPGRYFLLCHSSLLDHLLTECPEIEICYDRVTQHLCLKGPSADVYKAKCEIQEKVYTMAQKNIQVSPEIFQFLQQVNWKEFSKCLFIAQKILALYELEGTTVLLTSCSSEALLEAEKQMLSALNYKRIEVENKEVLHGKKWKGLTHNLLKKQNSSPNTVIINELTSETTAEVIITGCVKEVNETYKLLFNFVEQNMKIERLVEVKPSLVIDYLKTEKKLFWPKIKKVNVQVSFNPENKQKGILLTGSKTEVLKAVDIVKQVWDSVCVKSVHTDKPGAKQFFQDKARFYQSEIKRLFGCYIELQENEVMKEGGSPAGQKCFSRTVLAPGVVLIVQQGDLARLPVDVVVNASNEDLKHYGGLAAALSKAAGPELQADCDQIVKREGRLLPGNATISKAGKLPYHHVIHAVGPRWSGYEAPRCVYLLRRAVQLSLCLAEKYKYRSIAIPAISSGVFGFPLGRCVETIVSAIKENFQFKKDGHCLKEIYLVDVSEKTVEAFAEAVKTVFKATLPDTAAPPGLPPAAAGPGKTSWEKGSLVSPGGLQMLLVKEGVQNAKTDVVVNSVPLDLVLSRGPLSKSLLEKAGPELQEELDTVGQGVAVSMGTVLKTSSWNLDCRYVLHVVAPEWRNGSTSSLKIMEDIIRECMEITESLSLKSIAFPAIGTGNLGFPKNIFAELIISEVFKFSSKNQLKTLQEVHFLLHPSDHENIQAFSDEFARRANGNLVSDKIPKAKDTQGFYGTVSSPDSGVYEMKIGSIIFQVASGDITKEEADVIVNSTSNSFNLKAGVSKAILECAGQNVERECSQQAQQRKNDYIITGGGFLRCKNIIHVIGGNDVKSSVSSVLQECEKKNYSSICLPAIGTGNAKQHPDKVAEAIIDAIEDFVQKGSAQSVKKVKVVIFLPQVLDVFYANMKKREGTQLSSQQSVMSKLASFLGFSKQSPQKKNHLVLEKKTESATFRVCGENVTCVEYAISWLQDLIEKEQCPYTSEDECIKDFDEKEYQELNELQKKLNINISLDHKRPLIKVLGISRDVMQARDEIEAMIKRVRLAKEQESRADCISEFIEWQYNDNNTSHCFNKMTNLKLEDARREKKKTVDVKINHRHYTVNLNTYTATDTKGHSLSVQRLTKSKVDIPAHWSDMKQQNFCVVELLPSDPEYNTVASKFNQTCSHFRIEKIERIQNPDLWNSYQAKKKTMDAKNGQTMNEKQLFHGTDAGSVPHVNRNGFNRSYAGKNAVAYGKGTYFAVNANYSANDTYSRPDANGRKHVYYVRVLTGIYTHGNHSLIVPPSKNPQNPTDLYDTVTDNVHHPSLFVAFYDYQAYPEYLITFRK

The values that follow come from article PMC4415586 (European journal of medicinal chemistry, 2014).

For the compound `O=c1[nH]c2ccccc2c2c1sc1ccc(O)cc12` [compound 8, 10-Hydroxy[l]benzothieno[2,3-c]quinolin-6(5H)-one], the inhibition at 1 µM at TNKS-1 was not above 90%. Regarding `O=c1[nH]c(-c2ccccc2)cc2c1sc1ccccc12` [compound 16, 3-Phenyl[1]benzothieno[2,3-c]pyridin-1(2H)-one], the inhibition at 1 µM at TNKS-1 was determined as 84%. Turning to `CC(C)(C)c1ccc(-c2nc3c(sc4ccccc43)c(=O)[nH]2)cc1` [compound 23, 2-(4-tert-Butyl-phenyl)-3H-benzo[4,5]thieno[3,2-d] pyrimidin-4-one], in assay [1], the “TCF reporter activity inhibition” value was “comparable fashion to the reference compounds 1 and IWR-1”. In addition, the “long-term growth inhibition of DLD-1 cells” value in the assay on DLD-1 cancer cells is recorded as “marked efficacy”. Also, the “growth inhibition of Wnt-negative RKO cells” value in assay [2] is on record as “marginal non-specific effects were only detected at concentrations higher than 10 μM”. Moreover, the “inhibition of the other PARPs tested” value in assay [3] is listed as “below 20%”. Further, the TNKS-1 inhibition result at TNKS-1 (10 μM) is “fully inhibited”. Also, on TNKS-2 (10 μM), the TNKS-2 inhibition result is on record as “fully inhibited”.

Take Olaparib [AZD 2281]: the “% of inhibition PARP-2” value on PARP-2 came to 100%. Moreover, the “% inhibition PARP-14” value at PARP-14 is recorded as “less than 20%”. Take `COc1ccc2c(c1)nc(O)c1sc3ccccc3c12` [compound 7, 3-Methoxy[l]benzothieno[2,3-c]quinolin-6(5H)-one]: the “% of inhibition TNKS-1” value at TNKS-1 is reported as more than 70%. For the same compound, at TNKS-2, the inhibition at 1 µM is more than 70%. For `O=c1[nH]c(-c2ccccc2)nc2c3c(sc12)CCCC3` [compound 19, 2-Phenyl-6,7,8,9-tetrahydro-3H-benzo[4,5]thieno[3,2-d] pyrimidin-4-one], on TNKS-1, the “% of inhibition TNKS-1” value is “nearly inactive”. Take `Cc1ccc(-c2nc3c(sc4ccccc43)c(=O)[nH]2)cc1` [compound 22, 2-p-Tolyl-3H-benzo[4,5]thieno[3,2-d]pyrimidin-4-one]: the inhibition at 1 µM at TNKS-1 was determined as 98%. In the case of `COc1ccc2sc3c(O)nc4ccccc4c3c2c1` [compound 6, 10-Methoxy[l]benzothieno[2,3-c]quinolin-6(5H)-one], the inhibition at 1 µM on TNKS-1 and at TNKS-2 was more than 70% throughout. With `O=c1[nH]c2cc(O)ccc2c2c1sc1ccccc12` [compound 9, 3-Hydroxy[l]benzothieno[2,3-c]quinolin-6(5H)-one], the inhibition at 1 µM on TNKS-1 was not above 100%.

In general, inhibition refers to the change of the read-out against control, counted positive when it falls.
